Data set [1] concerns human colon carcinoma HCT-116 xenografts. Description: Anti-tumor activity in nude mice bearing subcutaneous human colon carcinoma HCT-116 xenografts. The format is in vivo. The settings on record: i.p. The method, then:
The effects of one compound of the invention were studied on the tumor growth of human cancer cells in nude mice. […] The induction in nude mice was realized by subcutaneous injection in the right flank of each mouse of 10×10^6 HCT-116 cells in 200 μl serum-free medium. When the tumor volume reached 130 mm^3, mice were randomized in to 3 groups (10 mice/group).
Mice of group 2 were treated by intraperitoneal injection of cisplatin (diluted in NaCl 0.9%) at 4 mg/kg according to the treatment schedule 1Q3Dx3.
The body weight and tumor volume of mice were recorded twice a week until the end of the experiment.

The test system of a further data set is HCT-116. Description: Cytotoxicity on human cancer cells (WST-1), HCT-116. The settings on record: HCT-116 colon cancer cells, WST-1 on D4. The format is cell-based. The procedure: (§1) Evaluation of Cytotoxicity Effects on Human Cancer Cells
(§2) The effects of the compounds of the invention on the viability of human cancer cells were studied on various human cancer cell lines of differing tissue origins (A549, NCI-H460: lung cancer; MDA-MB-231: breast cancer; HCT-116, HT-29: colon cancer; MIA-PaCa-2: pancreatic cancer; K562: leukaemia). All cell lines were obtained from ATCC or ECACC. Cells were cultured in the culture media described below, under a 37° C., 5% CO2 humidified atmosphere, according to a standard operating procedure.
HCT-116: Mc Coy's 5a+10% FBS+0.5 mM Ultraglutamine
(§3) On D0, the cells were plated in 90 μl in 96 wells plates at densities ranging from 500 to 5,000 cells per well.
(§4) Following addition of the test substance the cells were protected from light. The solvents (DMSO and specific control solvent were added at the maximal concentration: 10 μl/well (3 wells/condition)).
(§5) On D4, the Cell Proliferation Reagent WST-1 was added to each well (10 μl/well), according to a standard operating procedure. The cells were then incubated for 30 min to 4 h at 37° C.-5% CO2. After these incubations, the 96-well plates were shaken thoroughly for 1 min with Multiskan® EX apparatus (Thermo Labsystems, France). The absorbence was measured at 450 nm, the reference wavelength being 620 nm. […]

For a further data set, the system named is K562 cells. Description: Cytotoxicity on human cancer cells (WST-1), K562. The format is cell-based. The settings on record: WST-1 on D4, read-out: K562 IC50. The procedure: as §1, §2, §3, §4
(§6) On D4, the Cell Proliferation Reagent WST-1 was added to each well (10 μl/well), according to a standard operating procedure. The cells were then incubated for 30 min to 4 h at 37° C.-5% CO2. After these incubations, the 96-well plates were shaken thoroughly for 1 min with Multiskan® EX apparatus (Thermo Labsystems, France). The absorbence was measured at 450 nm, the reference wavelength being 620 nm. The analysis of the results was performed with the Ascent software 2.6 (Thermo Labsystems, France), Microsoft Excel 2003 and GraphPad Prism 4.03 softwares to give the concentration of the compounds that induces the death of 50% of the cells (IC50).

The next data set deals with MIA-PaCa-2. Description: Cytotoxicity on human cancer cells (WST-1), MIA-PaCa-2. The format is cell-based. The settings on record: MIA-PaCa-2 pancreatic cancer cells, WST-1 on D4. The method, then:
as §1, §2, §3, §4, §6

The test system of the next data set is MDA-MB-231. Description: Cytotoxicity on human cancer cells (WST-1), MDA-MB-231. In kind it is cell-based. The settings on record: MDA-MB-231 breast cancer cells, WST-1 on D4. The method, then:
as §1, §2, §3, §4, §6

Another data set concerns NCI-H460. Description: Cytotoxicity on human cancer cells (WST-1), NCI-H460. The settings on record: NCI-H460 lung cancer cells, WST-1 on D4, read-out: IC50 (μM) NCIH460. In kind it is cell-based. The procedure:
as §1, §2
NCI-H460: RPMI 1640+10% FBS+10 mM HEPES+1 mM Sodium pyruvate+2.5 g/l glucose
as §3, §4, §5

Data set [2] has as its target T1, Human recombinant MKlp2 motor domain1-519, His tagged (Homo sapiens, UniProt O95235).
T1 construct: Human recombinant MKlp2 motor domain1-519, His tagged; His; purchased Cytoskeleton MP05
T1 sequence (O95235 1-519): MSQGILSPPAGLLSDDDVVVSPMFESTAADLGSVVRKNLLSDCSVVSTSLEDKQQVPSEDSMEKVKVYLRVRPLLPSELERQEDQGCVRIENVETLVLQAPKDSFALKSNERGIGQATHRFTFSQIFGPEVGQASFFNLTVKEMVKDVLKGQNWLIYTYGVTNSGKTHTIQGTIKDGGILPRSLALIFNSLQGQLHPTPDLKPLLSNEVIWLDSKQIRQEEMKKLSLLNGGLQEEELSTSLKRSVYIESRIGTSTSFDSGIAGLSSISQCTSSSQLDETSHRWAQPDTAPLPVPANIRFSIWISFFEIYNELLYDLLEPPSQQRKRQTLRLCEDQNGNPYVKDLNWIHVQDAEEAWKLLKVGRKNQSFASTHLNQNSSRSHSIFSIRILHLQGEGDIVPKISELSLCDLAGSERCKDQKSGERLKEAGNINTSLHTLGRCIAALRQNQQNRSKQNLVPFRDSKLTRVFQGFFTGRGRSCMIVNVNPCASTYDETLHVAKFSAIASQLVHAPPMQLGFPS
Description: Microtubule stimulated ATPase activity of the MKlp2 motor domain (Kinesin ELIPA Assay Kit). The format is biochemical. The settings on record: read-out: MKIp2 IC50. In outline:
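Microtubule-stimulated ATPase at 22° C, with free phosphate followed in real time by MESG/PNP coupled absorbance at 360 nm. Motor mix in Pipes-NaOH pH 7.0, MgCl2, 30 μM Tx with porcine brain microtubules; reaction started with 5 mM ATP stock at 20% of volume. Kinetic read: 21 readings, 30 s apart.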

Data set [3] is described as follows: Stability studies in mouse plasma. In kind it is in vitro ADME. The settings on record: for Remaining compound 63 (%) (mean ± SEM, n = 2): Mouse plasma, 2 μM, 37° C. The procedure:
(§7) Stability Studies in Mouse or Human Plasma The study was to evaluate the stability of the disclosed compounds after incubation in mouse or human plasma and to measure the metabolites formed. For the disclosed compound, a stock solution was prepared at 200 μM in DMSO. This solution was then 100-fold diluted in 1 ml of mouse or human plasma in order to obtain the required concentration of 2 μM. One aliquot of 100 μl was taken (TO) and the remaining solution was incubated at 37° C. in water bath for 60 min, 120 min and 240 min. At the end of each incubation time 100 μl of plasma was taken, 100 μl of acetonitrile containing 0.1% of formic acid were added to each aliquot in order to stop the enzymatic reaction and to precipitate the proteins. Samples was vortexed/mixed and centrifuged 5 min at 16434.6 g (=14000 rpm) (4° C.). After centrifugation, the clear supernatant (at least 150 μl) was transferred into 1.2 ml HPLC glass vials and sealed. Samples were placed into the refrigerated autosampler and 20 μl were injected into a HPLC-MS/MS. The results are expressed with the percentage of test substance remaining by comparing area under specific chromatographic peak of test samples after incubation with area under specific chromatographic peak at TO (Tables 7 and 8 and FIGS. 1 and 2).

The nature of data set [4]: Stability studies in human plasma. In kind it is in vitro ADME. The settings on record: for Remaining compound 63 (%) (mean ± SEM, n = 2): Human plasma, 2 μM, 37° C. The method, then:
as §7

Setting [5] is: HCT-116 xenograft nude mice, Cisplatin 4 mg/kg, Cpd 38 37.5 mg/kg, starting MBW 21 g.
Setting [6] is: Table 6 (prodrugs, formula II), K562 cells.

Structures can show the parent of a compound that is named as a salt. Where two headings read alike, the source gives them in different places. Where only a bound is given, the exact number is not on record here.

On to `N.N.[Cl][Pt][Cl]` [Cisplatin, cisplatin, reference compound], for which the “Antitumor activity (tumor volume, FIG. 3)” value in [1] (HCT-116 xenograft bearing nude mice, cisplatin 4 mg/kg, compound 38 37.5 mg/kg) is given as “Antitumor activity was observed”. Further, in data set [1] (setting [5]), the “MBWC D 0-D 4 (mean body weight change)” value is -1.1 g, the “MBWC D 0-D 7 (mean body weight change)” value was -2.54 g, the “MBWC D 0-D 10 (mean body weight change)” value is -3.33 g and the “MBWC D 0-D 14 (mean body weight change)” value was -2.22 g. Moreover, in data set [1] (setting [5]), the “MBWC D 0-D 17 (mean body weight change)” value was -1.26 g, the “MBWC D 0-D 21 (mean body weight change)” value was -0.38 g, the “MBWC D 0-D 24 (mean body weight change)” value was -0.02 g and the “MBWC D 0-D 28 (mean body weight change)” value was -0.1 g.

As for `COc1ccncc1/C=C(\C#N)c1c[nH]c2ccc(Br)cc12` [Example 5, (Z)-2-(5-bromo-1H-indol-3-yl)-3-(4-methoxypyridin-3-yl)acrylonitrile], the IC50 in the data set with HCT-116 came out at 0.7 µM; in the data set on K562 cells (Table 4, K562 leukaemia cells), 0.8 µM; in the data set on MIA-PaCa-2, 0.7 µM; in the data set on MDA-MB-231 it was 1.7 µM; in the data set on NCI-H460, 0.9 µM; in data set [2] (Table 3, 22° C.), 0.05 µM.

Regarding `COc1ccc(C#N)cc1/C=C(\C#N)c1cn(C(=O)CN(C)C)c2ccc(Br)cc12` [Example 63], the IC50 in the data set on K562 cells (setting [6]) came out at 0.04 µM; in data set [2] (Table 6 (prodrugs, formula II)), 10.6 µM. Further, the “Remaining compound 63 (%) (mean ± SEM, n = 2)” value came to 100.0 ± 0.0% in [3] (incubation time 0 min); 9.0 ± 0.8% in data set [3] (incubation time 60 min); 10.7 ± 8.7% in data set [3] (incubation time 120 min); 4.9 ± 0.5% in data set [3] (incubation time 240 min); 100.0 ± 0.0% in [4] (incubation time 0 min); 49.2 ± 5.1% in data set [4] (incubation time 60 min). The “Remaining compound 63 (%) (mean ± SEM, n = 2)” value in data set [4] (incubation time 120 min) came out at 27.2 ± 5.4%; in [4] (incubation time 240 min), 21.2 ± 11.2%. The half-life at 2 μM in data set [3] (mouse, plasma) is ~33 min; in data set [4] (human, plasma), ~60 min.

Consider `COc1ccc(C#N)cc1/C=C(\C#N)c1cn(C(=O)C[C@H](C)N)c2ccc(Br)cc12` [Example 70, (S,Z)-3-(2-(1-(3-aminobutanoyl)-5-bromo-1H-indol-3-yl)-2-cyanovinyl)-4-methoxybenzonitrile hydrochloride], for which the IC50 in the data set with K562 cells (setting [6]) was 0.01 µM; in data set [2] (Table 6 (prodrugs, formula II)), > 50 µM.

With `COc1ccc(C#N)cc1/C=C(\C#N)c1cn(C(=O)CN)c2ccc(Br)cc12` [Example 71, (Z)-3-(2-(1-(2-aminoacetyl)-5-bromo-1H-indol-3-yl)-2-cyanovinyl)-4-methoxybenzonitrile hydrochloride], the IC50 with K562 cells (setting [6]) was determined as 0.01 µM; in data set [2] (Table 6 (prodrugs, formula II)), 1.9 µM.

With `COc1ccc(C#N)cc1/C=C(\C#N)c1cn(C(=O)CN2CCNCC2)c2ccc(Br)cc12` [Example 72, (Z)-3-(2-(5-bromo-1-(2-(piperazin-1-yl)acetyl)-1H-indol-3-yl)-2-cyanovinyl)-4-methoxybenzonitrile Hydrochloride], the half-maximal inhibitory concentration (IC50) in the data set on K562 cells (setting [6]) was 0.01 µM; in data set [2] (Table 6 (prodrugs, formula II)), > 50 µM.

Regarding `COCCOCCOCC(=O)n1cc(/C(C#N)=C/c2cc(C#N)ccc2OC)c2cc(Br)ccc21` [Example 73, (Z)-3-(2-(5-bromo-1-(2-(2-(2-methoxyethoxy)ethoxy)acetyl)-1H-indol-3-yl)-2-cyanovinyl)-4-methoxybenzonitrile], the IC50 was 0.03 µM with K562 cells (setting [6]) and > 50 µM in data set [2] (Table 6 (prodrugs, formula II)).

On to `COc1ccc(C#N)cc1/C=C(\C#N)c1cn(C(=O)[C@@H](N)CO)c2ccc(Br)cc12` [Example 74, (S,Z)-3-(2-(1-(2-amino-3-hydroxypropanoyl)-5-bromo-1H-indol-3-yl)-2-cyanovinyl)-4-methoxybenzonitrile hydrochloride], for which the IC50 in the data set on K562 cells (setting [6]) is 0.01 µM; in data set [2] (Table 6 (prodrugs, formula II)) it was 2.1 µM.

Take `COc1ccc(C#N)cc1/C=C(\C#N)c1cn(C(=O)C2CCC(=O)N2)c2ccc(Br)cc12` (stereo not shown) [Example 75, (Z)-3-(2-(5-bromo-1-(5-oxopyrrolidine-2-carbonyl)-1H-indol-3-yl)-2-cyanovinyl)-4-methoxybenzonitrile]: the IC50 in the data set with K562 cells (setting [6]) was determined as 0.02 µM; in [2] (Table 6 (prodrugs, formula II)), 4.6 µM.

As for `COc1ccc(C#N)cc1/C=C(\C#N)c1cn(C(=O)[C@H](N)CCCCN)c2ccc(Br)cc12` [Example 76, (R,Z)-3-(2-(5-bromo-1-(2,6-diaminohexanoyl)-1H-indol-3-yl)-2-cyanovinyl)-4-methoxybenzonitrile dihydrochloride], the IC50 in the data set with K562 cells (setting [6]) amounted to 0.04 µM; in data set [2] (Table 6 (prodrugs, formula II)), 1.3 µM.

Consider `COc1ccc(C#N)cc1/C=C(\C#N)c1cn(C(=O)CCOP(=O)(O)O)c2ccc(Br)cc12` [Example 79, (Z)-3-(5-bromo-3-(1-cyano-2-(5-cyano-2-methoxyphenyl)vinyl)-1H-indol-1-yl)-3-oxopropyl dihydrogen phosphate], for which the half-inhibitory concentration (IC50) in the data set with K562 cells (setting [6]) was 0.4 µM; in data set [2] (Table 6 (prodrugs, formula II)), > 50 µM.

The values above are taken from US10189782B2, “Derivatives of indole for the treatment of cancer, viral infections and lung diseases” (BIOKINESIS, priority 2012, dated 2019).
